Read-outs that look alike come from different tables or passages of the source.
What was measured:
Assay type in all cases: biochemical
[1] = target: T1, 320 wild-type protein kinases (Homo sapiens, UniProt O15530); settings: singlicate
T1 sequence (O15530 1-556): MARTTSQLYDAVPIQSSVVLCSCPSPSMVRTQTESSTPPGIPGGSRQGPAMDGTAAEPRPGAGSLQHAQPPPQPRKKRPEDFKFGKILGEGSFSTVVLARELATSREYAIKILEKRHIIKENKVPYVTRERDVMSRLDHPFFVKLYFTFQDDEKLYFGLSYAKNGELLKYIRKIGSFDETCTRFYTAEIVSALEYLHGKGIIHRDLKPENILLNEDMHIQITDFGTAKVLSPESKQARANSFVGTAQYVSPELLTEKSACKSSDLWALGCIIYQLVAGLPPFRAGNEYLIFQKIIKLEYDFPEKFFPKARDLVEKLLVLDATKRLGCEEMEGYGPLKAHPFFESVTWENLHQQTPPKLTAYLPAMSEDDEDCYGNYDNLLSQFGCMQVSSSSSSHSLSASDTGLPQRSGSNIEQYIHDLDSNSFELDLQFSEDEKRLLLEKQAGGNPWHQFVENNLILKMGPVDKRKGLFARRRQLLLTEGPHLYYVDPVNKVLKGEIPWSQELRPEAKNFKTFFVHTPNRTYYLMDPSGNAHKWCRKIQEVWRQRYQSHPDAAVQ
Text: (§1) Table S4. Profiling of two compounds at two concentrations against 320 wild-type protein kinases; singlicate measurement; Residual activities (% of control).

[2] = target: 320 wild-type protein kinases (Homo sapiens, UniProt O75716); settings: kinase TSF1, singlicate
Chain of 320 wild-type protein kinases (Homo sapiens, UniProt O75716) (O75716 whole entry): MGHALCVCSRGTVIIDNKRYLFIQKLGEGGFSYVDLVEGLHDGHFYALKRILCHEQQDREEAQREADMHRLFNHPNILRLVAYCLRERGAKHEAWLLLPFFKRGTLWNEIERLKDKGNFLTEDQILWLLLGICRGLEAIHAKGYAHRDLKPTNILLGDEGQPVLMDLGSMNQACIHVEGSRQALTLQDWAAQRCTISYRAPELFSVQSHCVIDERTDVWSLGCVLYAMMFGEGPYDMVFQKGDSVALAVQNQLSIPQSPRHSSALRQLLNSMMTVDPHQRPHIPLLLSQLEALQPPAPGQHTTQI
Text: as §1

[3] = target: 320 wild-type protein kinases (Homo sapiens, UniProt P05771); settings: singlicate
Chain of 320 wild-type protein kinases (Homo sapiens, UniProt P05771) (P05771 whole entry): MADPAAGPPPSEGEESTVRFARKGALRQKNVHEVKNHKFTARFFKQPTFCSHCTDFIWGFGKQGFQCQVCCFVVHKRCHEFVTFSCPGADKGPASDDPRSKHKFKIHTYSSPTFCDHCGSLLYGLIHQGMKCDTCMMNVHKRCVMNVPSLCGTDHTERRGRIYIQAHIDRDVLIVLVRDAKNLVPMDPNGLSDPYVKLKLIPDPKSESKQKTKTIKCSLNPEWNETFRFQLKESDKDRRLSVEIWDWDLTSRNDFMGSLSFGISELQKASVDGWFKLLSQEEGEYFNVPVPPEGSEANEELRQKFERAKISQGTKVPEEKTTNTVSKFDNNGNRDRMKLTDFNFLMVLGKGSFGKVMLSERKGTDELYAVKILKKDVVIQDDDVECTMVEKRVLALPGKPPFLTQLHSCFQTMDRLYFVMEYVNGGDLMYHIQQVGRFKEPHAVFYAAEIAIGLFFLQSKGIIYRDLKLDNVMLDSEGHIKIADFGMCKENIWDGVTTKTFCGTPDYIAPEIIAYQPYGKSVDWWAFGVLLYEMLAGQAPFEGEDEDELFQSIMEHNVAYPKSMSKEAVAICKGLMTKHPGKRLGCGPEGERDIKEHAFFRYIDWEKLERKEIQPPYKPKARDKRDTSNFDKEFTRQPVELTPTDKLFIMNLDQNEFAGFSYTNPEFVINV
Text: as §1

[4] = target: 320 wild-type protein kinases (Homo sapiens, UniProt P22455); settings: singlicate
Chain of 320 wild-type protein kinases (Homo sapiens, UniProt P22455) (P22455 22-802): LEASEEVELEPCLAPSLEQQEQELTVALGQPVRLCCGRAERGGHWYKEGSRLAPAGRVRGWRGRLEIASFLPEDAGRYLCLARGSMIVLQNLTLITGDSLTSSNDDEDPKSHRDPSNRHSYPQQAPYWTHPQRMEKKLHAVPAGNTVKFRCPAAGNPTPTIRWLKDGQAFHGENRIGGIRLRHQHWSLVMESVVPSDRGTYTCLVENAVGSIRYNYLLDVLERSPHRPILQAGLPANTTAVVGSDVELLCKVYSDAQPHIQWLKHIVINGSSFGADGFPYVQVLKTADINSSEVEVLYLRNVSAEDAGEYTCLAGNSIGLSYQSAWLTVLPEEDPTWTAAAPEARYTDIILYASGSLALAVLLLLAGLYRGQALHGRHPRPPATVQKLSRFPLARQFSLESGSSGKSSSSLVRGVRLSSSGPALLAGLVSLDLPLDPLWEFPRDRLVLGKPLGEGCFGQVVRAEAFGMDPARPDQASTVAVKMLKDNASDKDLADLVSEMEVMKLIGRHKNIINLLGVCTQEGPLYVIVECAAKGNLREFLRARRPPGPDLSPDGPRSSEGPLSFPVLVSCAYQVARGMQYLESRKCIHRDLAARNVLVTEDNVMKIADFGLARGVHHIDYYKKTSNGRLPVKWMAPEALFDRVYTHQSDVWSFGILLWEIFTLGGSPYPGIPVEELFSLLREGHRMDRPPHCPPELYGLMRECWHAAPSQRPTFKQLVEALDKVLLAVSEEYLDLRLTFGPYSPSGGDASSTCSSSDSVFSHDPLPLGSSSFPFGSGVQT
Text: as §1

[5] = target: T2, 320 wild-type protein kinases (Homo sapiens, UniProt P42680); settings: kinase TEC, singlicate
T2 sequence (P42680 1-631): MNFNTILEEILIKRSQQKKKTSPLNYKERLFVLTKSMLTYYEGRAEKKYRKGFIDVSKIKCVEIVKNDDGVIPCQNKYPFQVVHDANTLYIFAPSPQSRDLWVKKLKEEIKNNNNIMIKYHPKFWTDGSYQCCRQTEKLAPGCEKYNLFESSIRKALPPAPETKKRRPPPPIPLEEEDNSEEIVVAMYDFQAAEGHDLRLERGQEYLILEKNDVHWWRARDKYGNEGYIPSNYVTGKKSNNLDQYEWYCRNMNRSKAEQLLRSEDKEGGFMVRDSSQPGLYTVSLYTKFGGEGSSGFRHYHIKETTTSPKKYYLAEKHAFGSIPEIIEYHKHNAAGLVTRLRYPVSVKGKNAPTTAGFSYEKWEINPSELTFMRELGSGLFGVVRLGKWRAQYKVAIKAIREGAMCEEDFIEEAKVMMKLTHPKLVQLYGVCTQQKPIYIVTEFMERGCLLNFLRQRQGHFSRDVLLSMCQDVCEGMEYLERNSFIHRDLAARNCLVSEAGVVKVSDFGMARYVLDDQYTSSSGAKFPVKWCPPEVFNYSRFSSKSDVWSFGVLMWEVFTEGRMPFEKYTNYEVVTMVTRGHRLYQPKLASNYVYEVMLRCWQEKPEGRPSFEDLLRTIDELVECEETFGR
Text: as §1

[6] = target: 320 wild-type protein kinases (Homo sapiens, UniProt P49760); settings: singlicate
Chain of 320 wild-type protein kinases (Homo sapiens, UniProt P49760) (P49760 whole entry): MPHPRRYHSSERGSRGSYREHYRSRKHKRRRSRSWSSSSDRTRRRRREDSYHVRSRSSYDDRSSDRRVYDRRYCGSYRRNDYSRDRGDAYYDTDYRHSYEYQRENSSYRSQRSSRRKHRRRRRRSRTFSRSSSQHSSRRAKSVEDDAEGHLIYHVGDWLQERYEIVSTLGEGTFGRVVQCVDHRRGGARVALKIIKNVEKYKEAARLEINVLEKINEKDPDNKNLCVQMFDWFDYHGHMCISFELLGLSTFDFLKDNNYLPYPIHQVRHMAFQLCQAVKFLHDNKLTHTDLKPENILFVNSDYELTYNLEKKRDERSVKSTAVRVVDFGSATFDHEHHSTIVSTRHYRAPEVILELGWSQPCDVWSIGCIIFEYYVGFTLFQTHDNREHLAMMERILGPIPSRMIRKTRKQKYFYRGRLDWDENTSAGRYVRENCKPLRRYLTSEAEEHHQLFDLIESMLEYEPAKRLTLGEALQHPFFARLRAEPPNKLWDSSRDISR
Text: as §1

[7] = target: 320 wild-type protein kinases (Homo sapiens, UniProt P54756); settings: singlicate
Text: as §1

[8] = target: 320 wild-type protein kinases (Homo sapiens, UniProt Q15349); settings: kinase RPS6KA2, singlicate
Chain of 320 wild-type protein kinases (Homo sapiens, UniProt Q15349) (Q15349 whole entry): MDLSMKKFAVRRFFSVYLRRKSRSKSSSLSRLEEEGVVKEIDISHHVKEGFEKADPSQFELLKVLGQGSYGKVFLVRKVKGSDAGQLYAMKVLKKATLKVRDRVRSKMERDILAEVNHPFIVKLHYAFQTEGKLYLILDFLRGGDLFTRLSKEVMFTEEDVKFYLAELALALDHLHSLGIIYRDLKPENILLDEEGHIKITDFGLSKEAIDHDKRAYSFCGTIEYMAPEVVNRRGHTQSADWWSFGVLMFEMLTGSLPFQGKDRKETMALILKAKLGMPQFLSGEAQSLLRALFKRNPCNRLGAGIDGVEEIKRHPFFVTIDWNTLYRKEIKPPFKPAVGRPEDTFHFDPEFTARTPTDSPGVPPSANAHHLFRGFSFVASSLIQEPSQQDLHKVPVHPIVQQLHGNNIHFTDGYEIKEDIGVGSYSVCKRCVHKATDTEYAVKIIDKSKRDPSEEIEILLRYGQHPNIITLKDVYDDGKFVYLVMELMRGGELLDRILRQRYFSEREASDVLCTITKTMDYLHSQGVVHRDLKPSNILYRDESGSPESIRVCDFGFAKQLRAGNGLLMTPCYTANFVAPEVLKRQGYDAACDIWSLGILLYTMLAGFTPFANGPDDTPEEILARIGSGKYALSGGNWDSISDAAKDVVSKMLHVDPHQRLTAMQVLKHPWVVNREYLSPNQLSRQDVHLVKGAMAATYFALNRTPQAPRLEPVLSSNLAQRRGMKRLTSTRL
Text: as §1

[9] = target: T3, 320 wild-type protein kinases (Homo sapiens, UniProt Q8NE63); settings: singlicate
T3 sequence (Q8NE63 1-616): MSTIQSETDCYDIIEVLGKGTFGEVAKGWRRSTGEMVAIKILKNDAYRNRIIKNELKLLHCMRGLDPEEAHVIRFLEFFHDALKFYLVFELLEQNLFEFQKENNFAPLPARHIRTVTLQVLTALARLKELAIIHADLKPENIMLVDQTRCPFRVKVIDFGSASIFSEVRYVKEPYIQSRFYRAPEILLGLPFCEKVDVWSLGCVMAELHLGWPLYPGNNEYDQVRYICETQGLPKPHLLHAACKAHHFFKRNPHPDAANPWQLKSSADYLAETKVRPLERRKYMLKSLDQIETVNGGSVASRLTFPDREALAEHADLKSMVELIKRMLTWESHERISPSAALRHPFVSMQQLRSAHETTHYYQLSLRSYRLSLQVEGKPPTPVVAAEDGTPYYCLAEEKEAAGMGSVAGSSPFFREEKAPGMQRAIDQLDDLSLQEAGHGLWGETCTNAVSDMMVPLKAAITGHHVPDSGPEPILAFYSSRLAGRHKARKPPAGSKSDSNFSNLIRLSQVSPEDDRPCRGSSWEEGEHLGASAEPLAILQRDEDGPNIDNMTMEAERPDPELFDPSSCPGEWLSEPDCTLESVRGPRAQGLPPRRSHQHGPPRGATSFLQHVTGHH
Text: as §1

[10] = target: 320 wild-type protein kinases (Homo sapiens, UniProt Q9H422); settings: singlicate
Chain of 320 wild-type protein kinases (Homo sapiens, UniProt Q9H422) (Q9H422 whole entry): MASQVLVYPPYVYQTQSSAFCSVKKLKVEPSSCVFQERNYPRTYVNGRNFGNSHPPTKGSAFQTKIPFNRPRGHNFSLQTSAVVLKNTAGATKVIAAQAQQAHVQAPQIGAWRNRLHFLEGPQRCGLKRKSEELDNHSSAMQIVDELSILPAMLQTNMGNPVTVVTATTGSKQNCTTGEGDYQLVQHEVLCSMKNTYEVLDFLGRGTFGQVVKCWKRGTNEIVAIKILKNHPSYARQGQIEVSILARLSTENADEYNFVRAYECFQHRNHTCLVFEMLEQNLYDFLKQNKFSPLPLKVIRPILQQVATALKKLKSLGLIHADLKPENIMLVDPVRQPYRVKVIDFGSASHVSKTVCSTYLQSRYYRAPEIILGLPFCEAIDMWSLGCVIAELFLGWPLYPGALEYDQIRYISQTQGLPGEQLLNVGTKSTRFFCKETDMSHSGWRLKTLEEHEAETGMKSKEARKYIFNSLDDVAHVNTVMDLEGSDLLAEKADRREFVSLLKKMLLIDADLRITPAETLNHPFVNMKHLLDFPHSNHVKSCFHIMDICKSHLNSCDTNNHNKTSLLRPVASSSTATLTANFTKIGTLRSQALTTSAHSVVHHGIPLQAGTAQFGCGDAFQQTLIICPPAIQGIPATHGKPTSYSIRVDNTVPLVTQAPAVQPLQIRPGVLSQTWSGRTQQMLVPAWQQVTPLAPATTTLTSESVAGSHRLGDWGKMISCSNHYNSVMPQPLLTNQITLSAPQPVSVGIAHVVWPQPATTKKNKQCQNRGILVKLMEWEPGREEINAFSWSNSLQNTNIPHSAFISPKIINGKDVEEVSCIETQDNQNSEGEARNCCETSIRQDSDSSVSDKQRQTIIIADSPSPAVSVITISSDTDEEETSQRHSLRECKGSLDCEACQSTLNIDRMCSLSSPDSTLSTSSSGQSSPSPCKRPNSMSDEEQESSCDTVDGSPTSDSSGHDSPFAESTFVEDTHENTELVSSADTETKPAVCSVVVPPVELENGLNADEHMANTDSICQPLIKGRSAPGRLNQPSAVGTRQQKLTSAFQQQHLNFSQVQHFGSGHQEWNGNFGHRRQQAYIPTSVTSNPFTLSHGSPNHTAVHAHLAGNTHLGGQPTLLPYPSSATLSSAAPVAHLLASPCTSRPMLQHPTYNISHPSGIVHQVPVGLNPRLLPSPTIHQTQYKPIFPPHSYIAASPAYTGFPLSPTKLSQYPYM
Text: as §1

Structure (SMILES) | Residual activity ([1]; PDK1, 1.0E-06 M) | Residual activity ([1]; PDK1, 1.0E-07 M) | Residual activity, TSF1 ([2]; assay conc. 1.0E-06 M) | Residual activity, TSF1 ([2]; assay conc. 1.0E-07 M) | Residual activity ([3]; PKC-beta1, 1.0E-06 M) | Residual activity ([3]; PKC-beta1, 1.0E-07 M) | Residual activity ([4]; FGF-R4, 1.0E-06 M) | Residual activity ([4]; FGF-R4, 1.0E-07 M) | Residual activity, TEC ([5]; assay conc. 1.0E-06 M) | Residual activity, TEC ([5]; assay conc. 1.0E-07 M) | Residual activity ([6]; CLK2, 1.0E-06 M) | Residual activity ([6]; CLK2, 1.0E-07 M) | Residual activity ([7]; EPHA5, 1.0E-06 M) | Residual activity ([7]; EPHA5, 1.0E-07 M) | Residual activity, RPS6KA2 ([8]; assay conc. 1.0E-06 M) | Residual activity, RPS6KA2 ([8]; assay conc. 1.0E-07 M) | Residual activity ([9]; HIPK4, 1.0E-06 M) | Residual activity ([9]; HIPK4, 1.0E-07 M) | Residual activity ([10]; HIPK3, 1.0E-06 M) | Residual activity ([10]; HIPK3, 1.0E-07 M)
C#Cc1cc(Nc2ncnc3cc(I)ccc23)ccc1Cl [Compound 41] | 77 % of control | 96 % of control | 94 % of control | 93 % of control | 96 % of control | 110 % of control | 88 % of control | 96 % of control | 90 % of control | 96 % of control | 106 % of control | 122 % of control | 126 % of control | 128 % of control | 94 % of control | 97 % of control | 97 % of control | 104 % of control | 103 % of control | 98 % of control
C#Cc1cc(Nc2ncnc3cc(OC)c(OC)cc23)ccc1Cl [Compound 45] | 79 % of control | 93 % of control | 104 % of control | 95 % of control | 88 % of control | 95 % of control | 96 % of control | 100 % of control | 92 % of control | 108 % of control | 105 % of control | 119 % of control | 92 % of control | 115 % of control | 86 % of control | 100 % of control | 57 % of control | 98 % of control | 97 % of control | 102 % of control

— publication PMC9329436, “Optimization of the 4-anilinoquin(az)oline scaffold as epidermal growth factor receptor (EGFR) inhibitors for chordoma utilizing a toxicology profiling assay platform” (Scientific Reports, 2022)
